# Experimental data reported in US11986493B2 (University of Pittsburgh—Of the Commonwealth System of …, priority 2013, dated 2024).
# Tested on: subjects with pulmonary hypertension (WHO group I PAH, WHO group III PH)
# Test: Right heart catheterization: right heart/pulmonary artery hemodynamics, thermodilution cardiac output, PVR and SVR after inhaled NO and nebulized nitrite
# Type: in vivo, human
# Description: A total of 6 subjects with a confirmed diagnosis of pulmonary hypertension and meeting all inclusion/exclusion criteria were enrolled in the study which entailed a single right heart catheterization. The study population consisted of subjects with WHO group I PAH (n=3) and subjects with WHO group III PH (n=3) which received the dose escalation paradigm:
# During the study right heart/pulmonary artery hemodynamics were measured as well as noninvasive systemic blood pressure monitoring and simultaneous RV echocardiography. Subjects were tested for the changes in pulmonary vascular resistance (PVR) measured by right heart catheterization and using thermodilution cardiac output measurement at time zero, at times 15, 30 and 45 minutes after completion of each nebulization dose.
# Following right heart catheterization, the patient was stabilized for 20 minutes. Baseline blood collections and hemodynamic measurements were performed, followed by treatment with 40 ppm inhaled NO gas for […] with repeat hemodynamic measurements performed.
# After stopping inhaled NO gas, a single dose of sildenafil was given if patients were on background sildenafil therapy at previously prescribed doses. 45-minutes after sildenafil dose baseline hemodynamics were performed.
# Subjects were monitored carefully during and after the study treatment.
# The study was conducted at the 3rd FL Catheterization Laboratory at Presbyterian Hospital of the University of Pittsburgh Medical Center (UPMC). Baseline vasoreactivity was recorded after Inhaled NO at 40 ppm for […]. […] Subjects were instructed to breathe as calmly, and deeply as possible until no more mist was formed in the nebulizer chamber. Subjects were also instructed to hold their breath for approximately 10 seconds after inhalation to allow the study drug to reach deep into the lungs.
# [1] = Patient 1, nitrite 45 mg inhaled, 15 min
# [2] = Patient 1, nitrite 45 mg inhaled, 30 min
# [3] = Patient 1, nitrite 45 mg inhaled, 45 min
# [4] = Patient 1, nitrite 45 mg inhaled, 60 min
# [5] = Patient 1, nitrite 90 mg inhaled, 15 min
# [6] = Patient 1, nitrite 90 mg inhaled, 30 min
# [7] = Patient 1, nitrite 90 mg inhaled, 45 min
# [8] = Patient 1, nitrite 90 mg inhaled, 60 min
# [9] = Patient 2, nitrite 45 mg inhaled, 15 min
# [10] = Patient 2, nitrite 45 mg inhaled, 30 min
# [11] = Patient 2, nitrite 45 mg inhaled, 45 min
# [12] = Patient 2, nitrite 45 mg inhaled, 60 min
# [13] = Patient 2, nitrite 90 mg inhaled, 15 min
# [14] = Patient 2, nitrite 90 mg inhaled, 30 min
# [15] = Patient 2, nitrite 90 mg inhaled, 45 min
# [16] = Patient 2, nitrite 90 mg inhaled, 60 min
# [17] = Patient 3, nitrite 45 mg inhaled, 15 min
# [18] = Patient 3, nitrite 45 mg inhaled, 30 min
# [19] = Patient 3, nitrite 45 mg inhaled, 45 min
# [20] = Patient 3, nitrite 45 mg inhaled, 60 min
# [21] = Patient 3, nitrite 90 mg inhaled, 15 min
# [22] = Patient 3, nitrite 90 mg inhaled, 30 min
# [23] = Patient 3, nitrite 90 mg inhaled, 45 min
# [24] = Patient 3, nitrite 90 mg inhaled, 60 min
structure (smiles),measurement,setting,value
"O=NO [nitrite, sodium nitrite]",CI,[1],2.47
same,CO,[1],4.77
same,PA sat,[1],66
same,PAD,[1],35
same,PAS,[1],93
same,PCWP,[1],11
same,PVR,[1],9.09
same,PVR/SVR,[1],0.58
same,RA,[1],9
same,RVD,[1],8
same,RVS,[1],98
same,SVR,[1],15.66
same,TPR,[1],11.39
same,mPAP,[1],54.34
same,CI,[2],2.65
same,CO,[2],5.12
same,PA sat,[2],68
same,PAD,[2],36
same,PAS,[2],98
same,PCWP,[2],7
same,PVR,[2],9.70
same,PVR/SVR,[2],0.64
same,RA,[2],10
same,RVD,[2],10
same,RVS,[2],94
same,SVR,[2],15.24
same,TPR,[2],11.07
same,mPAP,[2],56.67
same,CI,[3],2.51
same,CO,[3],4.85
same,PA sat,[3],63
same,PAD,[3],38
same,PAS,[3],100
same,PCWP,[3],9
same,PVR,[3],10.24
same,PVR/SVR,[3],0.66
same,RA,[3],9
same,RVD,[3],9
same,RVS,[3],95
same,SVR,[3],15.53
same,TPR,[3],12.10
same,mPAP,[3],58.67
same,CI,[4],3.11
same,CO,[4],6.01
same,PA sat,[4],62
same,PAD,[4],36
same,PAS,[4],98
same,PCWP,[4],7
same,PVR,[4],8.27
same,PVR/SVR,[4],0.63
same,RA,[4],9
same,RVD,[4],9
same,RVS,[4],94
same,SVR,[4],13.15
same,TPR,[4],9.43
same,mPAP,[4],56.67
same,CI,[5],2.93
same,CO,[5],5.65
same,PA sat,[5],64
same,PAD,[5],32
same,PAS,[5],92
same,PCWP,[5],2
same,PVR,[5],8.85
same,PVR/SVR,[5],0.68
same,RA,[5],3
same,RVD,[5],3
same,RVS,[5],96
same,SVR,[5],13.10
same,TPR,[5],9.20
same,mPAP,[5],52.01
same,CI,[6],2.99
same,CO,[6],5.77
same,PA sat,[6],61
same,PAD,[6],32
same,PAS,[6],92
same,PCWP,[6],2
same,PVR,[6],8.67
same,PVR/SVR,[6],0.68
same,RA,[6],4
same,RVD,[6],3
same,RVS,[6],91
same,SVR,[6],12.83
same,TPR,[6],9.01
same,mPAP,[6],52.01
same,CI,[7],3.22
same,CO,[7],6.22
same,PA sat,[7],62
same,PAD,[7],31
same,PAS,[7],90
same,PCWP,[7],2
same,PVR,[7],7.83
same,PVR/SVR,[7],0.67
same,RA,[7],3
same,RVD,[7],3
same,RVS,[7],92
same,SVR,[7],11.63
same,TPR,[7],8.15
same,mPAP,[7],50.67
same,CI,[8],3.14
same,CO,[8],6.06
same,PA sat,[8],62
same,PAD,[8],30
same,PAS,[8],90
same,PCWP,[8],3
same,PVR,[8],7.76
same,PVR/SVR,[8],0.61
same,RA,[8],3
same,RVD,[8],2
same,RVS,[8],88
same,SVR,[8],12.65
same,TPR,[8],8.25
same,mPAP,[8],50.01
same,CI,[9],3.67
same,CO,[9],7.08
same,PAD,[9],19
same,PAS,[9],57
same,PCWP,[9],8
same,PVR,[9],3.34
same,PVR/SVR,[9],0.25
same,RA,[9],6
same,SVR,[9],13.28
same,TPR,[9],4.47
same,mPAP,[9],31.67
same,CI,[10],3.88
same,CO,[10],7.48
same,PAD,[10],22
same,PAS,[10],64
same,PCWP,[10],9
same,PVR,[10],3.61
same,PVR/SVR,[10],0.30
same,RA,[10],6
same,SVR,[10],11.99
same,TPR,[10],4.81
same,mPAP,[10],36.01
same,CI,[11],3.93
same,CO,[11],7.58
same,PAD,[11],21
same,PAS,[11],62
same,PCWP,[11],8
same,PVR,[11],3.52
same,PVR/SVR,[11],0.29
same,RA,[11],3
same,SVR,[11],12.23
same,TPR,[11],4.57
same,mPAP,[11],34.67
same,CI,[12],3.89
same,CO,[12],7.5
same,PAD,[12],21
same,PAS,[12],64
same,PCWP,[12],8
same,PVR,[12],3.65
same,PVR/SVR,[12],0.32
same,RA,[12],4
same,SVR,[12],11.38
same,TPR,[12],4.71
same,mPAP,[12],35.34
same,CI,[13],3.81
same,CO,[13],7.35
same,PAD,[13],20
same,PAS,[13],57
same,PCWP,[13],8
same,PVR,[13],3.31
same,PVR/SVR,[13],0.25
same,RA,[13],2
same,SVR,[13],13.06
same,TPR,[13],4.40
same,mPAP,[13],32.34
same,CI,[14],4.60
same,CO,[14],8.87
same,PAD,[14],22
same,PAS,[14],60
same,PCWP,[14],6
same,PVR,[14],3.23
same,PVR/SVR,[14],0.31
same,RA,[14],3
same,SVR,[14],10.41
same,TPR,[14],3.91
same,mPAP,[14],34.67
same,CI,[15],4.19
same,CO,[15],8.09
same,PAD,[15],21
same,PAS,[15],62
same,PCWP,[15],7
same,PVR,[15],3.42
same,PVR/SVR,[15],0.28
same,RA,[15],3
same,SVR,[15],12.12
same,TPR,[15],4.29
same,mPAP,[15],34.67
same,CI,[16],4.56
same,CO,[16],8.8
same,PAD,[16],22
same,PAS,[16],68
same,PCWP,[16],6
same,PVR,[16],3.56
same,PVR/SVR,[16],0.33
same,RA,[16],5
same,RVD,[16],3
same,RVS,[16],62
same,SVR,[16],10.76
same,TPR,[16],4.24
same,mPAP,[16],37.34
same,CI,[17],3.19
same,CO,[17],6.63
same,PAD,[17],19
same,PAS,[17],80
same,PCWP,[17],14
same,PVR,[17],3.82
same,PVR/SVR,[17],0.45
same,RA,[17],12
same,SVR,[17],8.55
same,TPR,[17],5.93
same,mPAP,[17],39.34
same,CI,[18],3.08
same,CO,[18],6.4
same,PAD,[18],20
same,PAS,[18],70
same,PCWP,[18],15
same,PVR,[18],3.39
same,PVR/SVR,[18],0.37
same,RA,[18],10
same,SVR,[18],9.22
same,TPR,[18],5.73
same,mPAP,[18],35.67
same,CI,[19],3.17
same,CO,[19],6.6
same,PAD,[19],20
same,PAS,[19],74
same,PCWP,[19],14
same,PVR,[19],3.64
same,PVR/SVR,[19],0.42
same,RA,[19],13
same,SVR,[19],8.64
same,TPR,[19],5.76
same,mPAP,[19],38.01
same,CI,[20],3.07
same,CO,[20],6.39
same,PAD,[20],20
same,PAS,[20],70
same,PCWP,[20],14
same,PVR,[20],3.55
same,PVR/SVR,[20],0.40
same,RA,[20],13
same,SVR,[20],8.92
same,TPR,[20],5.74
same,mPAP,[20],36.67
same,CI,[21],3.69
same,CO,[21],7.67
same,PAD,[21],19
same,PAS,[21],69
same,PCWP,[21],13
same,PVR,[21],2.96
same,PVR/SVR,[21],0.40
same,RA,[21],12
same,SVR,[21],7.48
same,TPR,[21],4.65
same,mPAP,[21],35.67
same,CI,[22],2.41
same,CO,[22],5.01
same,PAD,[22],17
same,PAS,[22],73
same,PCWP,[22],11
same,PVR,[22],4.92
same,PVR/SVR,[22],0.39
same,RA,[22],10
same,SVR,[22],12.51
same,TPR,[22],7.12
same,mPAP,[22],35.67
same,CI,[23],2.94
same,CO,[23],6.11
same,PAD,[23],19
same,PAS,[23],71
same,PCWP,[23],12
same,PVR,[23],3.98
same,PVR/SVR,[23],0.42
same,RA,[23],11
same,SVR,[23],9.55
same,TPR,[23],5.95
same,mPAP,[23],36.34
same,CI,[24],3.34
same,CO,[24],6.95
same,PAD,[24],20
same,PAS,[24],72
same,PCWP,[24],14
same,PVR,[24],3.36
same,PVR/SVR,[24],0.36
same,RA,[24],9
same,RVD,[24],8
same,RVS,[24],71
same,SVR,[24],9.31
same,TPR,[24],5.37
